The results in this text go back to patent US8003137B2, “Extracts of Aristolochia paucinervis pomel and uses thereof” (FasTrack Pharmaceuticals, Inc., priority 2008, dated 2011).

For this data set, the system named is human red blood cells. Briefly: Hemolytic activity on heparinized whole blood. It counts as cell-based. The conditions noted are these: 0- to 14-day incubation, all dilutions examined. The protocol: The hemolytic activity of A. paucinervis pomel extract on blood cells was examined, and compared with the ability of Triton-X to lyse these cells.
To perform these studies, heparinized-whole blood was incubated with dilutions of Triton-X-100 (0-1%) or 5× (4.4 mg/ml) A. paucinervis pomel extract for 40 minutes at room temperature. Plasma was collected after centrifugation at 1200×g for 5 minutes and diluted 1/20 with DPBS. The absorbance at 560 nm of 100 μl of each diluted plasma sample was measured. In a second experiment, the effects of incubating whole blood with dilutions of 5× (4.4 mg/ml) A. paucinervis pomel extract for 0, 3, 7 and 14 days was assessed. Experimental results are shown in FIG. 5A (cells treated with A. paucinervis pomel extract) and FIG. 5B (cells treated with Triton-X-100).

Regarding Triton-X, the “hemolytic activity on blood cells” value is given as “toxic to blood cells”.
